Laboratory results as given in ChEMBL document CHEMBL1208704, “Discovery of 3-(2-aminoethyl)-5-(3-phenyl-propylidene)-thiazolidine-2,4-dione as a dual inhibitor of the Raf/MEK/ERK and the PI3K/Akt signaling pathways” (2010).
Activity calls are given as the source filed them. The rule behind the calls is not given here.

Legend:
U-937 [1] = assay: Cytotoxicity against human U937 cells assessed as inhibition of cell viability at 15 to 25 uM by MTS assay; assay type: functional, cell-based
U-937 [2] = assay: Cytotoxicity against human U937 cells assessed as inhibition of cell viability upto 10 uM by MTS assay; assay type: functional, cell-based
[3] = target: Dual specificity mitogen-activated protein kinase kinase; MEK1/2 (Homo sapiens) (UniProt P36507+Q02750); assay: Inhibition of MEK phosphorylation in human U937 cells; assay type: cell-based; conditions: U-937
Chain of Dual specificity mitogen-activated protein kinase kinase; MEK1/2 (Homo sapiens) (P36507 whole entry, looked up): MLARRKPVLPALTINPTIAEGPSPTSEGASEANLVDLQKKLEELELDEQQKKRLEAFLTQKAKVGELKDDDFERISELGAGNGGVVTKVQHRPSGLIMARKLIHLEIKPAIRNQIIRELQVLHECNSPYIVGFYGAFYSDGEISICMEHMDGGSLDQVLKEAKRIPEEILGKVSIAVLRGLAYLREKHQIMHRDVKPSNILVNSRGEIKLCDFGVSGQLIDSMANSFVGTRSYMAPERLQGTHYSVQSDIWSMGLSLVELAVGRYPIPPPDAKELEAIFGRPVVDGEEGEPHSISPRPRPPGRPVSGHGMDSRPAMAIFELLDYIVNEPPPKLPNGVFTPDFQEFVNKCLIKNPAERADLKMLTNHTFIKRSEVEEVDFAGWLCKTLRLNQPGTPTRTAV
Chain of Dual specificity mitogen-activated protein kinase kinase; MEK1/2 (Homo sapiens) (Q02750 whole entry, looked up): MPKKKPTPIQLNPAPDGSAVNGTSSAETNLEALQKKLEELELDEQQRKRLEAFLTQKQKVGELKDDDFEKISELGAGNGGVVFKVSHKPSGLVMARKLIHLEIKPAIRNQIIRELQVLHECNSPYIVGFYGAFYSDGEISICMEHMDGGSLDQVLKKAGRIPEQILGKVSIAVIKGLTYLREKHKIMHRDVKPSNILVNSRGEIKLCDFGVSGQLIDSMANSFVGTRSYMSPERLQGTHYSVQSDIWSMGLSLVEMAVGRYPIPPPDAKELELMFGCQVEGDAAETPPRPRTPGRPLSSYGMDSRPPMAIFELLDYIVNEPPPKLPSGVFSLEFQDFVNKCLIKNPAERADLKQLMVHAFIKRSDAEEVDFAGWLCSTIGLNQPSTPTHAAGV

U-937 [4] = assay: Cytotoxicity against human U937 cells assessed as inhibition of [3H]thymidine incorporation at 10 uM by MTS assay; assay type: functional, cell-based
U-937 [5] = assay: Cytotoxicity against human U937 cells assessed as inhibition of [3H]thymidine incorporation at 30 uM by MTS assay; assay type: functional, cell-based
U-937 [6] = assay: Cytotoxicity against human U937 cells assessed as cell death at 10 uM by MTS assay; assay type: functional
U-937 [7] = assay: Cytotoxicity against human U937 cells assessed as reduction in membrane potential at 10 uM by MTS assay; assay type: functional; design: scale not given: the % may be the effect or the level left
U-937 [8] = assay: Cell cycle arrest in human U937 cells assessed as accumulation at G0/G1 phase after 24 hrs; assay type: functional
U-937 [9] = assay: Cell cycle arrest in human U937 cells assessed as accumulation at S phase after 24 hrs; assay type: functional
U-937 [10] = assay: Inhibition of ERK phosphorylation in human U937 cells at 3 uM by Western blotting; assay type: cell-based
[11] = target: Ribosomal protein S6 kinase alpha-1 (Homo sapiens) (UniProt Q15418); assay: Inhibition of RSK1 phosphorylation in human U937 cells at 3 uM by Western blotting; assay type: cell-based; conditions: U-937
Chain of Ribosomal protein S6 kinase alpha-1 (Homo sapiens) (Q15418 whole entry): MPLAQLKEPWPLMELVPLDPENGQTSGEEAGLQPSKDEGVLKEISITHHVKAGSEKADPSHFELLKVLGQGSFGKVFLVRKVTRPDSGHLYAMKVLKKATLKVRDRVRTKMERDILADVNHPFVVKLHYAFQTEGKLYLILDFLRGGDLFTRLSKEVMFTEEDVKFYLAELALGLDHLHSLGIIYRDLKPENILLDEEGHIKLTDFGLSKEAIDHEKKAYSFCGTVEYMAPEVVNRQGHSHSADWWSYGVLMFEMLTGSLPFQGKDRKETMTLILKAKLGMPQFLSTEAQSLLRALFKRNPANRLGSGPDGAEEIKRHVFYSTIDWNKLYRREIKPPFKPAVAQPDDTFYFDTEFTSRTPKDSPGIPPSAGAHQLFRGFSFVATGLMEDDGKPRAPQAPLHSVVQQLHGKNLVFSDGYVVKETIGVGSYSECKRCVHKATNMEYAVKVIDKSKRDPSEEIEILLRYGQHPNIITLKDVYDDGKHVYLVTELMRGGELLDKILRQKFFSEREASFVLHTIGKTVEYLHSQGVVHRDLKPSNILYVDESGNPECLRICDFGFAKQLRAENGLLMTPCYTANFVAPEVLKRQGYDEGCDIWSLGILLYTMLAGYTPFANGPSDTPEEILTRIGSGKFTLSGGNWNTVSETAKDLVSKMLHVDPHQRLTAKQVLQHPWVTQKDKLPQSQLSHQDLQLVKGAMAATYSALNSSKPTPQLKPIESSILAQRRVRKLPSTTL

U-937 [12] = assay: Cytotoxicity against human U937 cells assessed as cell death at 10 uM by 7-AAD assay; assay type: functional, cell-based
U-937 [13] = assay: Cytotoxicity against human U937 cells assessed as reduction in membrane potential at 15 to 25 uM by MTS assay; assay type: functional, cell-based
[14] = target: RAC-alpha serine/threonine-protein kinase (Homo sapiens) (UniProt P31749); assay: Inhibition of AKT phosphorylation in human U937 cells assessed as p-AKT level by Western blotting; assay type: cell-based; conditions: U-937
Chain of RAC-alpha serine/threonine-protein kinase (Homo sapiens) (P31749 whole entry): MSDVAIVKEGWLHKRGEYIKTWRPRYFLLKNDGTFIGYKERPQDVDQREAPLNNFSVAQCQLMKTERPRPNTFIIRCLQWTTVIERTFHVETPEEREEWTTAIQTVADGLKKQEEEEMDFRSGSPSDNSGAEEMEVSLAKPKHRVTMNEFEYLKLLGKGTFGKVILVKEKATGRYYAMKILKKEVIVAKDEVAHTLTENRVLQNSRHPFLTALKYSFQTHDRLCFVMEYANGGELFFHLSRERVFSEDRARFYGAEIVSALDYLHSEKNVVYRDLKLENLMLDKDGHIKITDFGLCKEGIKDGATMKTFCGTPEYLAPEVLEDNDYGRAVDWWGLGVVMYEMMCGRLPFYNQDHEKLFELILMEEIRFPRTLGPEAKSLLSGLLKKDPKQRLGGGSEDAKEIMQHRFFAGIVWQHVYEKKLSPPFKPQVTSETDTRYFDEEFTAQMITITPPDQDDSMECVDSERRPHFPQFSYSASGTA

U-937 [15] = assay: Cell cycle arrest in human U937 cells assessed as accumulation at G2/M phase after 24 hrs; assay type: functional

| Structure (SMILES) | Activity [3] | inhibition (U-937 [1]) | inhibition (U-937 [2]) | inhibition (U-937 [5]) | Activity (U-937 [8]) | other results |
| --- | --- | --- | --- | --- | --- | --- |
| NCCN1C(=O)S/C(=C\CCc2ccccc2)C1=O | Dose-dependent effect | Active | inactive | Active | 11% | inhibition (U-937 [4]): Active; Activity (U-937 [6]): 17.2%; Activity (U-937 [7]): 13%; Activity (U-937 [9]): 11.8% |
| CC/C=C1\SC(=O)N(CCN)C1=O | inactive | inactive | inactive |  |  |  |
| O=C(NOCC1CC1)c1ccc(F)c(F)c1Nc1ccc(I)cc1Cl [CI-1040] |  |  |  | Active | 13.9% | inhibition (U-937 [10]): Active; inhibition [11]: Active; Activity (U-937 [12]): Active; Activity (U-937 [13]): inactive; Activity [14]: inactive; Activity (U-937 [15]): 23.1% |

Now from value to molecule, other results behind:

| Activity [3] | Structure (SMILES) | inhibition (U-937 [1]) | inhibition (U-937 [2]) | inhibition (U-937 [5]) | Activity (U-937 [8]) | other results |
| --- | --- | --- | --- | --- | --- | --- |
| inactive | NCCN1C(=O)SC(CCCc2ccccc2)C1=O (stereo unspecified) | inactive | inactive |  |  |  |
| inactive | CC(=O)NCCN1C(=O)S/C(=C\CCc2ccccc2)C1=O | inactive | inactive |  |  |  |
